Assays:
giant foxtail = test: Test C preemergence; assay type: in vivo, Setaria faberii; conditions: Setaria faberi, pre-emergence
In short: (§1)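 Plants were kept under greenhouse conditions for 13–15 days following spray. Pre-emergent application went to soil (loam–sand), post-emergent to foliage at 1–4 leaves. Evaluation: visual, percent control against untreated checks.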

large (Lg) crabgrass [1] = test: Test A postemergence; assay type: in vivo, Digitaria sanguinalis; conditions: Digitaria sanguinalis, post-emergence, 240 h
In short: (§2)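 Pre- and postemergence greenhouse screen. Soil: loam + sand. Spray carrier: solvent mixture, non-phytotoxic, with surfactant. Post timing at 1–2 leaves, height 2–10 cm. Readout: visual injury on a 0–100 scale roughly 10 days after application, untreated plants as reference.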

rice = test: Test B flooded paddy test; assay type: in vivo, Oryza sativa; conditions: Oryza sativa; Flood, 250 g ai/ha; 0 to 100 scale where 0 is no effect and 100 is complete control; read-out: Plant response rating, Rice
In short: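 Evaluation is visual, against untreated controls, 13 to 15 days after treatment. Before treatment, plants reached the 2-leaf stage; pots were then flooded 3 cm deep, compound was added to the water, and that level was maintained. Ratings run 0 to 100, with 100 meaning complete control.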

morningglory = test: Test C postemergence; assay type: in vivo, Ipomoea coccinea; conditions: Ipomoea, post-emergence
In short: as §1

yellow nutsedge = test: Test C preemergence; assay type: in vivo, Cyperus esculentus; conditions: Cyperus, pre-emergence
In short: as §1

ragweed = test: Test C postemergence; assay type: in vivo, Ambrosia elatior; conditions: Ambrosia artemisiifolia, post-emergence
In short: as §1

large (Lg) crabgrass [2] = test: Test C postemergence; assay type: in vivo, Digitaria sanguinalis; conditions: Digitaria sanguinalis, post-emergence
In short: as §1

wild oat = test: Test C postemergence; assay type: in vivo, Avena fatua; conditions: Avena fatua, post-emergence
In short: as §1

barnyardgrass = test: Test A preemergence; assay type: in vivo, Echinochloa crus-galli; conditions: Echinochloa crus-galli, pre-emergence, 240 h
In short: as §2

large (Lg) crabgrass [3] = test: Test A preemergence; assay type: in vivo, Digitaria sanguinalis; conditions: Digitaria sanguinalis, pre-emergence, 240 h
In short: as §2

Italian ryegrass = test: Test C postemergence; assay type: in vivo, Lolium multiflorum; conditions: Lolium multiflorum, post-emergence
In short: as §1

oilseed rape = test: Test C postemergence; assay type: in vivo, Brassica napus; conditions: Brassica napus, post-emergence
In short: as §1

pigweed = test: Test A preemergence; assay type: in vivo, Amaranthus retroflexus; conditions: Amaranthus retroflexus, pre-emergence
In short: as §2

lambsquarters = test: Test C postemergence; assay type: in vivo, Chenopodium album; conditions: Chenopodium album, post-emergence
In short: as §1

corn = test: Test A preemergence; assay type: in vivo, Zea mays; conditions: Zea mays, pre-emergence, 240 h
In short: as §2

[4] = 125 g ai/ha, 0 to 100 scale where 0 is no effect and 100 is complete control, read-out: Plant response rating, Crabgrass, Large

## N#Cc1cccc(Oc2ncc(Cl)cn2)c1-n1cc(C(F)(F)F)cn1 [Compound 58, 3-[(5-chloro-2-pyrimidinyl)oxy]-2-[4-(trifluoromethyl)-1H-pyrazol-1-yl]benzonitrile]
Giant foxtail; 62 g ai/ha, preemergence, scale 0 (no effect) to 100 (complete control), read-out: Foxtail, Giant plant response rating
  pest or weed control at 62 g/ha: 100%
Giant foxtail; 125 g ai/ha, preemergence, scale 0 (no effect) to 100 (complete control), read-out: Foxtail, Giant plant response rating
  pest or weed control at 125 g/ha: 100%
Giant foxtail; 250 g ai/ha, preemergence, scale 0 (no effect) to 100 (complete control), read-out: Foxtail, Giant plant response rating
  pest or weed control at 250 g/ha: 100%
Giant foxtail; Preemergence, 31 g ai/ha, scale 0 to 100, 0 no effect, 100 complete control, read-out: Plant response rating, Foxtail, Giant
  pest or weed control at 31 g/ha: 100%
Large (Lg) crabgrass [1]; [4]
  pest or weed control at 125 g/ha: 100%
Large (Lg) crabgrass [1]; 500 g ai/ha, 0 to 100 scale, 0 no effect, 100 complete control, read-out: Plant response rating Crabgrass, Large
  pest or weed control at 500 g/ha: 100%
rice
  plant injury at 250 g/ha: 50%
morningglory; 125 g ai/ha, postemergence, read-out: Plant response rating (0 to 100), Morningglory
  pest or weed control at 125 g/ha: 98%
morningglory; 250 g ai/ha, postemergence, read-out: Plant response rating (0 to 100), Morningglory
  pest or weed control at 250 g/ha: 98%
morningglory; Postemergence, 31 g ai/ha, scale 0 to 100 (0 no effect, 100 complete control), 13 to 15 days, read-out: Plant response rating, Morningglory
  pest or weed control at 31 g/ha: 80%
morningglory; Postemergence, 62 g ai/ha, scale 0 to 100 (0 no effect, 100 complete control), read-out: Plant response rating, Morningglory
  pest or weed control at 62 g/ha: 95%
Yellow nutsedge; 62 g ai/ha, preemergence, scale 0 (no effect) to 100 (complete control), read-out: Nutsedge, Yellow plant response rating
  pest or weed control at 62 g/ha: 85%
Yellow nutsedge; 125 g ai/ha, preemergence, scale 0 (no effect) to 100 (complete control), read-out: Nutsedge, Yellow plant response rating
  pest or weed control at 125 g/ha: 90%
Yellow nutsedge; 250 g ai/ha, preemergence, scale 0 (no effect) to 100 (complete control), read-out: Nutsedge, Yellow plant response rating
  pest or weed control at 250 g/ha: 95%
Yellow nutsedge; Preemergence, 31 g ai/ha, scale 0 to 100, 0 no effect, 100 complete control, read-out: Plant response rating, Nutsedge, Yellow
  pest or weed control at 31 g/ha: 70%
ragweed; 125 g ai/ha, postemergence, read-out: Plant response rating (0 to 100), Ragweed
  pest or weed control at 125 g/ha: 85%
ragweed; 250 g ai/ha, postemergence, read-out: Plant response rating (0 to 100), Ragweed
  pest or weed control at 250 g/ha: 90%
ragweed; Postemergence, 31 g ai/ha, scale 0 to 100 (0 no effect, 100 complete control), 13 to 15 days, read-out: Plant response rating, Ragweed
  pest or weed control at 31 g/ha: 40%
ragweed; Postemergence, 62 g ai/ha, scale 0 to 100 (0 no effect, 100 complete control), read-out: Plant response rating, Ragweed
  pest or weed control at 62 g/ha: 45%
Large (Lg) crabgrass [2]; 125 g ai/ha, postemergence, read-out: Plant response rating (0 to 100), Crabgrass, Large
  pest or weed control at 125 g/ha: 50%
Large (Lg) crabgrass [2]; 250 g ai/ha, postemergence, read-out: Plant response rating (0 to 100), Crabgrass, Large
  pest or weed control at 250 g/ha: 85%
Large (Lg) crabgrass [2]; Postemergence, 31 g ai/ha, scale 0 to 100 (0 no effect, 100 complete control), 13 to 15 days, read-out: Plant response rating, Crabgrass, Large
  pest or weed control at 31 g/ha: 5%
Large (Lg) crabgrass [2]; Postemergence, 62 g ai/ha, scale 0 to 100 (0 no effect, 100 complete control), read-out: Plant response rating, Crabgrass, Large
  pest or weed control at 62 g/ha: 20%
Wild oat; 125 g ai/ha, postemergence, read-out: Plant response rating (0 to 100), Oat, Wild
  pest or weed control at 125 g/ha: 45%
Wild oat; 250 g ai/ha, postemergence, read-out: Plant response rating (0 to 100), Oat, Wild
  pest or weed control at 250 g/ha: 55%
Wild oat; Postemergence, 31 g ai/ha, scale 0 to 100 (0 no effect, 100 complete control), 13 to 15 days, read-out: Plant response rating, Oat, Wild
  pest or weed control at 31 g/ha: 35%
Wild oat; Postemergence, 62 g ai/ha, scale 0 to 100 (0 no effect, 100 complete control), read-out: Plant response rating, Oat, Wild
  pest or weed control at 62 g/ha: 40%
barnyardgrass; 125 g ai/ha, 0 to 100 scale where 0 is no effect and 100 is complete control, read-out: Plant response rating, Barnyardgrass
  pest or weed control at 125 g/ha: 100%
barnyardgrass; 500 g ai/ha, 0 to 100 scale, 0 no effect, 100 complete control, approx. 10 days, read-out: Barnyardgrass plant response rating
  pest or weed control at 500 g/ha: 100%
Large (Lg) crabgrass [3]; [4]
  pest or weed control at 125 g/ha: 100%
Large (Lg) crabgrass [3]; 500 g ai/ha, 0 to 100 scale, 0 no effect, 100 complete control, approx. 10 days, read-out: Crabgrass, Large plant response rating
  pest or weed control at 500 g/ha: 100%
Italian ryegrass; 125 g ai/ha, postemergence, read-out: Plant response rating (0 to 100), Ryegrass, Italian
  pest or weed control at 125 g/ha: 10%
Italian ryegrass; 250 g ai/ha, postemergence, read-out: Plant response rating (0 to 100), Ryegrass, Italian
  pest or weed control at 250 g/ha: 35%
Italian ryegrass; Postemergence, 31 g ai/ha, scale 0 to 100 (0 no effect, 100 complete control), 13 to 15 days, read-out: Plant response rating, Ryegrass, Italian
  pest or weed control at 31 g/ha: 5%
Italian ryegrass; Postemergence, 62 g ai/ha, scale 0 to 100 (0 no effect, 100 complete control), read-out: Plant response rating, Ryegrass, Italian
  pest or weed control at 62 g/ha: 5%
Oilseed rape; 125 g ai/ha, postemergence, read-out: Plant response rating (0 to 100), Oilseed Rape
  plant injury at 125 g/ha: 85%
Oilseed rape; 250 g ai/ha, postemergence, read-out: Plant response rating (0 to 100), Oilseed Rape
  plant injury at 250 g/ha: 85%
Oilseed rape; Postemergence, 31 g ai/ha, scale 0 to 100 (0 no effect, 100 complete control), 13 to 15 days, read-out: Plant response rating, Oilseed Rape
  plant injury at 31 g/ha: 60%
Oilseed rape; Postemergence, 62 g ai/ha, scale 0 to 100 (0 no effect, 100 complete control), read-out: Plant response rating, Oilseed Rape
  plant injury at 62 g/ha: 70%
pigweed; 125 g ai/ha, 0 to 100 scale where 0 is no effect and 100 is complete control, read-out: Plant response rating, Pigweed
  pest or weed control at 125 g/ha: 100%
pigweed; 240 h, 500 g ai/ha, 0 to 100 scale, 0 no effect, 100 complete control, approx. 10 days, read-out: Pigweed plant response rating
  pest or weed control at 500 g/ha: 100%
lambsquarters; 125 g ai/ha, postemergence, read-out: Plant response rating (0 to 100), Lambsquarters
  pest or weed control at 125 g/ha: 98%
lambsquarters; 250 g ai/ha, postemergence, read-out: Plant response rating (0 to 100), Lambsquarters
  pest or weed control at 250 g/ha: 98%
lambsquarters; Postemergence, 31 g ai/ha, scale 0 to 100 (0 no effect, 100 complete control), 13 to 15 days, read-out: Plant response rating, Lambsquarters
  pest or weed control at 31 g/ha: 75%
lambsquarters; Postemergence, 62 g ai/ha, scale 0 to 100 (0 no effect, 100 complete control), read-out: Plant response rating, Lambsquarters
  pest or weed control at 62 g/ha: 90%
corn; 125 g ai/ha, 0 to 100 scale where 0 is no effect and 100 is complete control
  Corn plant response rating (crop injury, 0 = no effect, 100 = complete kill) at 125 g/ha: 40%
corn; 500 g ai/ha, 0 to 100 scale, 0 no effect, 100 complete control, approx. 10 days, read-out: Corn plant response rating
  plant injury at 500 g/ha: 70%
